For experiment [1], the target named is T1, KCNQ2/3 ion channel (KCNQ2/3-expressing CHO-K1 cells) (Homo sapiens, UniProt O43525+O43526).
T1 construct: expressed in transfected cells; host or cells: CHO-K1
Nature of the experiment: Fluorescence assay (FLIPR instrument, membrane potential dye) for substances acting agonistically on the KCNQ2/3 ion channel. In kind it is cell-based. The following applies: difference between maximum and minimum values, agonistic action detected from a value of −40 (and below). The protocol:
Pharmacological Test Methods I. Fluorescence Assay (FLIPR™ Instrument) for the Identification of Substances Acting Agonistically on the KCNQ2/3 Ion Channel
On the day before the experiment, KCNQ2/3-expressing CHO-K1 cells and CHO-K1 empty strain cells were seeded out onto coated poly-D-lysine black/clear plates (Falcon/BD Company; Order No.: 356640) in a concentration of 20000 cells/100 μl MEM alpha, 50 ml FCS, 5.5 ml PIS/G/solution (100×) and then incubated for 20-24 hours in an incubator (37° C., 5% CO2). On the day of the experiment the HBSS/hepes working solution and the FMP/HBSS/hepes mixture (Membrane Potential Assay Kit Red (FMP), bulk format Cat. No. R8123) were initially prepared according to the following protocol:
• 1000 ml 1× HBSS buffer (Hank's Balanced Salt Solution (1×) (Gibco; No. 14025)+10 ml hepes (1M stock solution, pH 7.4; hepes Na salt (Sigma Company; No. H7006-500 g; storage at 4° C. in a refrigerator) 2. 1× FMP/HBSS/hepes working solution: • 6 ml HBSS/hepes buffer are added to 5 ml of the FMP solution stored at −20° C. (preparation see below; thawing out at room temperature). The test substances (2 mM batch solution in 100% DMSO) contained in drug plates (Costar 96-well plates, catalogue No. 3795) were then diluted by adding HBSS/hepes buffer to a concentration of 30 μM (3× concentrated). The assay plates on which the cells grow were washed once with 200 μl HBSS/hepes (Cellwash Washer, Labsystems Company, catalogue No. 5161550) and the remaining volume was removed by tapping out the inverted plate twice. 100 μl of the FMP/HBSS/hepes working solution were then added in each case to the cell plates and incubated for 1 hour in the CO2 incubator at 37° C. and 5% CO2. The measurements are then carried out with a FLIPR III instrument from the Molecular Devices company (96-format, using the 540-590 nm band-pass filter in the #2 localization). In the experimental setup of the FLIPR software, filter #2 should be selected. The cell plates and the substance plates were fed alternately into the input stack. A signal test was carried out in each case with the cell plates before adding the substance. The test substances were then added via the pipetting unit of the FLIPR (added volume 50 μl, 3× concentrated, end concentration 10 μM) to the cavities of the cell plates in a total volume of 150 μl/well. The threshold data of the FLIPR program were as follows:
The pipette tips were washed after each pipetting procedure 3 times with 1% DMSO in water. The times of the measurement intervals after addition of the test substances are as follows:
Total measurement time: 6 min/plate
The test samples were evaluated by calculating the difference between the maximum and minimum values. EC50/IC50 values are calculated using the Graph Pad Prism software.
Preparation of the membrane potential loading buffer (membrane potential assay kit red (FMP), bulk format cat. No. R8123) according to the manufacturer's instructions:
10 ml of the 10× assay buffer (component B) were diluted with 90 ml of sterile water and then adjusted to pH 7.4 with 1.0N NaOH (1× assay buffer). One vessel with the FLIPR membrane potential assay component A was completely dissolved in 100 ml 1× assay buffer and thoroughly mixed for 10 minutes with a magnetic stirrer. 5 ml aliquots were then stored at −20° C. (storage shelf life ca. 2 weeks).
An agonistic action can be detected starting from a value of −40 (and below).

Experiment [2] has as its target T2, hKCNQ2/3 (stably transfected hKCNQ2/3 CHO-K1 cell line) (Homo sapiens, UniProt O43525+O43526).
T2 construct: expressed in transfected cells; host or cells: CHO-K1
Briefly: Voltage clamp (patch-clamp) measurements, current increase relative to retigabin. In kind it is cell-based. The following applies: test substance 10 μM at −40 mV; current increase standardized to retigabin (10 μM) effect. The protocol:
II. Voltage Clamp Measurements
In order to confirm electrophysiologically a KCNQ2/3 agonistic action of the substances, patch-clamp measurements [see Hamill O P, Marty A, Neher E, Sakmann B, Sigworth F J: “Improved patch-clamp techniques for high-resolution current recording from cells and cell-free membrane patches”, Pflugers Arch. 1981 August; 391(2):85-100] were carried out in the voltage clamp mode on a stably transfected hKCNQ2/3 CHO-K1 cell line. After formation of the gigaseal the cells were first of all clamped at a holding potential of −60 mV. Depolarising voltage jumps were then applied up to a potential of +20 mV (increment: 20 mV, duration: 1 second), in order to confirm the functional expression of KCNQ2/3 typical currents. The substances were tested at a potential of −40 mV. The current increase induced by retigabin (10 μM) was first of all recorded on each cell at −40 mV as positive control. After completely washing out the retigabin effect (duration: 80 sec) the test substance (10 μM) was applied. The current increase induced by the test substance was standardized to the retigabin effect and stated as relative efficacy (see below).
A general note: The patch-clamp technique gives a direct electrical read-out from membranes.

The structures appear in SMILES notation.

For `FC(F)(F)c1ccc(CNc2noc3ccccc23)cc1` [Example 152, benzo[d]isoxazol-3-yl-(4-trifluoromethylbenzyl)-amine], the “FLIPR membrane potential fluorescence change (ΔF %, max minus min); negative values indicate KCNQ2/3 agonism” value in experiment [1] was −49%. For the same compound, in experiment [2], the “Voltage clamp: relative efficacy with respect to retigabin [10 μM]” value (“Voltage clamp: relative efficacy” for short) turned out to be 0.22.

Regarding `FC(F)(F)Sc1ccc(CNc2noc3ccccc23)cc1` [Example 160, benzo[d]isoxazol-3-yl-(4-trifluoromethylsulfanyl-benzyl)-amine], in experiment [1], the “FLIPR membrane potential fluorescence change (ΔF %, max minus min); negative values indicate KCNQ2/3 agonism” value is recorded as −58%. The “Voltage clamp: relative efficacy” value in experiment [2] is 0.45.

As to `CCCCc1ccc(CNc2noc3cccc(N)c23)cc1` [Example 175, N3-(4-butylbenzyl)-benzo[d]isoxazole-3,4-diamine], in experiment [1], the “FLIPR membrane potential fluorescence change (ΔF %, max minus min); negative values indicate KCNQ2/3 agonism” value is given as −57.7%. Moreover, in experiment [2], the “Voltage clamp: relative efficacy” value stood at 0.59.

In the case of `Cc1cc(C)cc(CNc2noc3cccc(N)c23)c1` [Example 174, N3-(3,5-dimethylbenzyl)-benzo[d]isoxazole-3,4-diamine], the “FLIPR membrane potential fluorescence change (ΔF %, max minus min); negative values indicate KCNQ2/3 agonism” value in experiment [1] is given as −45.5%. Also, the “Voltage clamp: relative efficacy” value in experiment [2] is 0.8.

For the compound `Fc1ccc2onc(NCc3ccc(OC(F)(F)F)cc3)c2c1` [Example 159, (5-fluorobenzo[d]isoxazol-3-yl)-(4-trifluoromethoxy-benzyl)-amine], in experiment [1], the “FLIPR membrane potential fluorescence change (ΔF %, max minus min); negative values indicate KCNQ2/3 agonism” value is listed as −41%. In experiment [2], the “Voltage clamp: relative efficacy” value worked out at 0.42.

These data come from patent US7696238B2, “Substituted benzo[d]isoxazol-3-yl amine compounds as analgesics” (Gruenenthal GmbH, priority 2005, dated 2010).
